Data set [1] concerns the target nAChR formed by the α7 subunit isoform (Rattus norvegicus, UniProt Q05941). Briefly: biochemical. Format: binding.
Data set [2] concerns the target nAChRs comprised of α4 and β2 subunits (Rattus norvegicus, UniProt P09483+P12390). The data set is described as follows: In vitro inhibition of 3H-cytisine binding. As for the experimental part:
In Vitro Inhibition of ^3H-cytisine Binding
The predominant subtype with high affinity for nicotine is comprised of α4 and β2 subunits. nAChRs of the latter type can selectively be labelled by the nicotine agonist ^3H-cytisine.
Tissue Preparation: Preparations are performed at 0-4° C. unless otherwise indicated. […] The homogenate is centrifuged at 27,000×g for 10 min. The supernatant is discarded and the pellet is resuspended in fresh buffer and centrifuged a second time. The final pellet is resuspended in fresh buffer (35 ml per g of original tissue) and used for binding assays.
Assay: Aliquots of 500 μl homogenate are added to 25 μl of test solution and 25 μl of ^3H-cytisine (1 nM, final concentration), mixed and incubated for 90 min at 2° C. Non-specific binding is determined using (−)-nicotine (100 μM, final concentration). After incubation the samples are added 5 ml of ice-cold buffer and poured directly onto Whatman GF/C glass fibre filters under suction and immediately washed with 2×5 ml ice-cold buffer. The amount of radioactivity on the filters is determined by conventional liquid scintillation counting. Specific binding is total binding minus non-specific binding.

The target in data set [3] is T1, α4β2 subtype of nicotinic receptors (neuronal nicotinic receptors) (Rattus norvegicus, UniProt P09483+P12390).
T1 construct: The forebrain (÷cerebellum) from a male Wistar rat (150-250 g) is homogenized; from tissue; host or cells: rat forebrain (without cerebellum) homogenate (male Wistar)
The data set is described as follows: In vitro inhibition of 3H-epibatidin binding. On the procedure: In Vitro Inhibition of ^3H-epibatidin Binding
The high affinity binding site for ^3H-epibatidin is most certainly binding to the α4β2 subtype of nicotinic receptors. The identity of the low affinity site is still unknown; does it represent a second nicotinic receptor or a second site in the same receptor.
Tissue preparation: Preparations are performed at 0-4° C. unless otherwise indicated. The forebrain (÷cerebellum) from a male Wistar rat (150-250 g) is homogenized for 10-20 sec in 20 ml Tris, HCl (50 mM, pH 7.4) using an Ultra-Turrax homogenizer. The tissue suspension is centrifuged at 27,000×g for 10 min. The supernatant is discarded and the pellet is washed three times by centrifugation at 27,000×g for 10 min in 20 ml fresh buffer, and the final pellet is resuspended in fresh buffer (400 ml per g of original tissue) and used for binding assays.
Assay: Aliquots of 2.0 ml homogenate are added to 0.100 ml of test solution and 0.100 ml of ^3H-epibatidin (0.3 nM, final concentration), mixed and incubated for 60 min at room temperature. Non-specific binding is determined using (−)-nicotine (30 μM, final concentration). After incubation the samples are poured directly onto Whatman GF/C glass fibre filters (presoaked in 0.1% PEI for at least 20 min) under suction and immediately washed with 2×5 ml ice-cold buffer. The amount of radioactivity on the filters is determined by conventional liquid scintillation counting. Specific binding is total binding minus non-specific binding.

The conditions of data set [4]: approximate potency, times that of morphine; cited from earlier work.
Setting [5] is: read-out: 3H-α-bungarotoxin IC50.
The mark [6] stands for this setting: rat cerebral cortex homogenate, 1 nM 3H-cytisine, 90 min at 2° C., read-out: 3H-cytisine IC50.
The mark [7] stands for this setting: rat forebrain homogenate, 0.3 nM 3H-epibatidin, 60 min at room temperature, read-out: 3H-epibatidin IC50.

Counter-ions that a name gives are not always drawn. Like-named read-outs stand apart in the source and are kept apart here.

Sequence of nAChR formed by the α7 subunit isoform (Q05941 23-502): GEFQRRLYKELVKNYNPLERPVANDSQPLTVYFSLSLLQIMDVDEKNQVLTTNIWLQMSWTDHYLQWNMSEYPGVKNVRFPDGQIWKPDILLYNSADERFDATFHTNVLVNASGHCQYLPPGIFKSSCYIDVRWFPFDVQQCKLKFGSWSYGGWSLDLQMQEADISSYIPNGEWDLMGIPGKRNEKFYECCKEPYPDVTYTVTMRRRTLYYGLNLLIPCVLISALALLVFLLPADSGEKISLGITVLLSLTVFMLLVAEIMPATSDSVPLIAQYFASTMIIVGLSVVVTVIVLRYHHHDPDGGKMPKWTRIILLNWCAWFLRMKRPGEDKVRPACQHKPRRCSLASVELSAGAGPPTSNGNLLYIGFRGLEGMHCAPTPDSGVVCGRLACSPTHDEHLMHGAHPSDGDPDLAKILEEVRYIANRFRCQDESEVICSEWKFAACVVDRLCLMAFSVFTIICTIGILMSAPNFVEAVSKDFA
T1 sequence (P09483 31-630): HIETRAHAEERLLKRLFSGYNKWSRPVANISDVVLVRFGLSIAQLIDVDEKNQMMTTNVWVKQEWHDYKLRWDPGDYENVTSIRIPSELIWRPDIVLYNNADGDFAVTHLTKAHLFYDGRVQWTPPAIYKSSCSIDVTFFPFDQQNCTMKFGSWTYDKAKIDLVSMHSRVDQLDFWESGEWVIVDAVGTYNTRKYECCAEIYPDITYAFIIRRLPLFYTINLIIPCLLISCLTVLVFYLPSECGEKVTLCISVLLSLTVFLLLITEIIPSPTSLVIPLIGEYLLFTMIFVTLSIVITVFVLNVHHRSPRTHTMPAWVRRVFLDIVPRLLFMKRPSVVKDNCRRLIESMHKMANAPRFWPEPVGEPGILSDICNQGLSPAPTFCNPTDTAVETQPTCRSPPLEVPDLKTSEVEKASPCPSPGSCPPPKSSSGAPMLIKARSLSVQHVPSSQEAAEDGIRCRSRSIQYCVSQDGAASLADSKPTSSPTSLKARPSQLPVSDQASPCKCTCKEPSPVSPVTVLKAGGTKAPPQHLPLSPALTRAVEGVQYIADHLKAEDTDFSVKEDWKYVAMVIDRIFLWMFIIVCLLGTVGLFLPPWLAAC
T1 sequence (P12390 25-500): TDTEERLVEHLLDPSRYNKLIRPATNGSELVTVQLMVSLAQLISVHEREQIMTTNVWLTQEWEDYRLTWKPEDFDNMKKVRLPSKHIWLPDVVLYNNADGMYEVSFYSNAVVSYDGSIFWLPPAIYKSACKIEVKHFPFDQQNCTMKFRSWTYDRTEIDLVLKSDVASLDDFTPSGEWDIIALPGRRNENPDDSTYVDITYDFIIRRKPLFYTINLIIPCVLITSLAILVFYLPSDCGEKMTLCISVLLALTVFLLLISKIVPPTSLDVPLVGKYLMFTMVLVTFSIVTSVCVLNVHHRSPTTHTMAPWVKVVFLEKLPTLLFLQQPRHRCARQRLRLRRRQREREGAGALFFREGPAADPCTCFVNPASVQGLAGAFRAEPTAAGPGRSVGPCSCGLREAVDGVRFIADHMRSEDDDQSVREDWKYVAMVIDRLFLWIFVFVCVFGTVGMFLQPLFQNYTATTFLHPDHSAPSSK
Sequence of nAChRs comprised of α4 and β2 subunits (P09483 31-630): as the sequence (P09483 31-630) above
Sequence of nAChRs comprised of α4 and β2 subunits (P12390 25-500): as the sequence (P12390 25-500) above

`CN1C2C=C(c3cccnc3)CC1CCC2.O=C(O)/C=C/C(=O)O` (racemic) [Compound 1a, (±)-9-Methyl-3-(3-pyridyl)-9-azabicyclo[3.3.1]non-2-ene Fumaric Acid Salt] displayed a melting point of 164.5 to 166.5 °C. Besides, in data set [1] (setting [5]), the IC50 came out at 500 nM. Besides, in data set [2], the IC50 was determined as 23 nM. In addition, in data set [3], the IC50 was 84 nM.
For `CN1C2C=C(c3cncnc3)CC1CCC2.O=C(O)/C=C/C(=O)O` (racemic) [Compound 1b, (±)-9-Methyl-3-(5-pyrimidyl)-9-azabicyclo[3.3.1]non-2-ene Fumaric Acid Salt] the same measures were 198 to 202 °C, 1600 nM, 78 nM and 52 nM.
In turn, `CN1C2C=C(c3cccc(N)c3)CC1CCC2.O=C(O)/C=C/C(=O)O` (racemic) [Compound 1c, (±)-3-(3-Aminophenyl)-9-methyl-9-azabicyclo[3.3.1]non-2-ene Fumaric Acid Salt] gave a melting point of 174 to 180 °C. For the same compound, in data set [1], it took 220 nM to reach half-maximal inhibition (IC50). Besides, the IC50 in data set [2] (setting [6]) stood at 40 nM. The IC50 in data set [3] (setting [7]) was found to be 180 nM.
As to `COc1cncc(C2=CC3CCCC(C2)N3C)c1` (racemic) [Compound 2a, (±)-3-[3-(5-Methoxy)-pyridyl]-9-methyl-9-azabicyclo[3.3.1]non-2-ene Fumaric Acid Salt], the figures for the half-inhibitory concentration (IC50) in data set [1] (setting [5]), in data set [2] and in data set [3] were 2000 nM, 17 nM and 76 nM, respectively.
`CN1C2C=C(c3cncc(-c4cccnc4)c3)CC1CCC2.O=C(O)/C=C/C(=O)O` (racemic) [Compound 2b, (±)-9-Methyl-3-[5-(3-pyridyl)-3-pyridyl]-9-azabicyclo[3.3.1]non-2-ene Fumaric Acid Salt] yielded a melting point of 206 to 208 °C. In addition, the IC50 in data set [1] (setting [5]) was 17000 nM. Moreover, the IC50 in data set [2] came to 13 nM. The IC50 in data set [3] is 240 nM.
For `CC(=O)Nc1cccc(C2=CC3CCCC(C2)N3C)c1.CC(=O)O` (racemic) [Compound 2c, (±)-3-(3-Acetamidophenyl)-9-methyl-9-azabicyclo[3.3.1]non-2-ene Acetic Acid Salt], in that order: 59.9 to 63.4 °C, 1700 nM, 85000 nM and 290000 nM.
For `CC(=O)C1=CC2CCCC(C1)N2C.O=C(O)/C=C/C(=O)O` (racemic) [Compound 2d, (±)-3-Acetyl-9-methyl-9-azabicyclo[3.3.1]non-2-ene Fumaric Acid Salt], in that order: 149 to 151 °C, 4200 nM, 590 nM and 1100 nM.
Take `CN1C2C=C(c3cncc(-c4ccccc4)c3)CC1CCC2` (racemic) [Compound 3a, (±)-9-Methyl-3-[3-(5-phenyl)-pyridyl]-9-azabicyclo[3.3.1]non-2-ene Fumaric Acid Salt]: the IC50 in data set [1] (setting [5]) was found to be 4100 nM; in data set [2] it was 25 nM; in data set [3] it was 150 nM.
On to `CN1C2C=C(c3cccc(N4CCCC4)c3)CC1CCC2` (racemic) [Compound 3c, (±)-3-[3-(1-Pyrrolidinyl)-phenyl]-9-methyl-9-azabicyclo[3.3.1]non-2-ene], for which the IC50 in data set [1] was 18000 nM; in data set [2] (setting [6]), > 10000 nM; in data set [3], > 10000 nM.
Consider `COc1cncc(C2=CC3CCCC(C2)N3)c1` (racemic) [Compound 3d, (±)-9-H-3-(3-(5-methoxy)-pyridyl)-9-azabicyclo[3.3.1]non-2-ene], for which the IC50 in data set [1] (setting [5]) was determined as 17 nM; in data set [2] (setting [6]) it was 3 nM; in data set [3], 18 nM.
For `CN1C2C=C(c3cc4ccccc4o3)CC1CCC2` (racemic) [Compound 4a, (±)-3-(2-Benzofuryl)-9-methyl-9-azabicyclo[3.1]non-2-ene Fumaric Acid Salt], the half-maximal inhibitory concentration (IC50) is 190 nM in data set [1], > 300000 nM in data set [2] (setting [6]) and > 300000 nM in data set [3].
On to `CN1C2C=C(c3cncc(-c4ccc(Oc5ccccc5)cc4)c3)CC1CCC2.O=C(O)/C=C/C(=O)O` (racemic) [Compound 4b, (±)-3-[5-(4-Phenoxyphenyl)-3-pyridyl]-9-methyl-9-azabicyclo[3.3.1]non-2-ene Fumaric Acid Salt], for which the melting point was 166 to 168 °C. The IC50 in data set [1] (setting [5]) was 17000 nM. Besides, in data set [2], the IC50 is 350 nM. In data set [3], this compound showed an IC50 of 690 nM.
In turn, `CN1C2C=C(c3ccoc3)CC1CCC2.O=C(O)/C=C/C(=O)O` (racemic) [Compound 4c, (±)-3-(3-Furyl)-9-methyl-9-azabicyclo[3.3.1]non-2-ene Fumaric Acid Salt] showed a melting point of 167 to 174 °C. Also, in data set [1] (setting [5]), the IC50 was found to be 660 nM. Moreover, the IC50 in data set [2] is 2000 nM. This compound had an IC50 in data set [3] of 5000 nM.
As to `COc1ccc(C2=CC3CCCC(C2)N3C)cn1` (racemic) [Compound 5b, (±)-3-[3-(6-Methoxy)-pyridyl)]-9-methyl-9-azabicyclo[3.3.1]non-2-ene Fumaric Acid Salt], the IC50 in data set [1] (setting [5]) worked out at 2300 nM; in data set [2], 2000 nM; in data set [3] it was 17000 nM.
In turn, `CN1C2C=C(c3cccc([N+](=O)[O-])c3)CC1CCC2.O=C(O)/C=C/C(=O)O` (racemic) [Compound 5c, (±)-9-Methyl-3-(3-nitrophenyl)-9-azabicyclo[3.3.1]non-2-ene Fumaric Acid Salt] registered a melting point of 133 to 144 °C. In data set [1] (setting [5]), the IC50 is 2200 nM. The same compound displayed an IC50 in data set [2] of 2700 nM. In data set [3], this compound came in with a half-maximal inhibitory concentration (IC50) of 3900 nM.
For `CCN1C2C=C(c3cccnc3)CC1CCC2.O=C(O)/C=C/C(=O)O` (racemic) [Compound 6a, (±)-9-Ethyl-3-(3-pyridyl)-9-azabicyclo[3.3.1]non-2-ene Fumaric Acid Salt], in that order: 193 to 195 °C, 5800 nM, 1800 nM and 1700 nM.
`CN1C2C=C(c3cnc4ccccc4c3)CC1CCC2.O=C(O)/C=C/C(=O)O` (racemic) [Compound 6b, (±)-3-(3-Quinolinyl)-9-methyl-9-azabicyclo[3.3.1]non-2-ene Fumaric Acid Salt] showed a melting point of 195 to 197 °C. Moreover, inhibition in data set [1] was half-maximal at 350 nM (IC50). Besides, the IC50 in data set [2] (setting [6]) came to 1000 nM. Also, the IC50 in data set [3] (setting [7]) amounted to 8300 nM.
As to `CN1C2C=C(c3cc4ccccc4s3)CC1CCC2` (racemic) [Compound 7a, (±)-3-(2-Benzothienyl)-9-methyl-9-azabicyclo[3.3.1]non-2-ene], the IC50 in data set [1] came to 160 nM; in data set [2] (setting [6]), 280000 nM; in data set [3] it was 280000 nM.
With `CN1C2C=C(c3ccc4ccccc4c3)CC1CCC2` (racemic) [Compound 8c, (±)-3-(2-Naphtyl)-9-methyl-9-azabicyclo[3.3.1]non-2-ene Oxalic Acid Salt], the IC50 was 370 nM in data set [1], > 300000 nM in data set [2] (setting [6]) and > 300000 nM in data set [3].
As to `C1=C(c2cccnc2)CC2CCCC1N2` (racemic) [Compound 11c, (±)-9-H-3-(3-Pyridyl)-9-azabicyclo[3.3.1]oct-2-ene Fumaric Acid Salt], the IC50 is 170 nM in data set [1] (setting [5]), 4.5 nM in data set [2] (setting [6]) and 46 nM in data set [3].
As for `CN1[C@@H]2CCC[C@H]1C[C@H](c1cccnc1)C2` [Compound 8a, Exo-9-Methyl-3-(3-pyridyl)-9-azabicyclo[3.3.1]nonane], the melting point lay in the range of 69 to 70 °C. Further, in data set [1] (setting [5]), the IC50 amounted to 1400 nM. Besides, the IC50 in data set [2] was 18 nM. For the same compound, the IC50 in data set [3] was 110 nM.
Consider `Clc1ccc(C2CC3CCC2N3)cn1` (stereo not shown) [Epibatidine], for which, in data set [4], the “analgesic potency relative to morphine” value is ~500 times.

In general, IC50 refers to the concentration at which inhibition is half-maximal. One may read the melting point as the temperature, or range, at which the solid turns liquid.

(Values after patent US6392045B1, “9-azobicyclo[3.3.1] non-2-ene derivatives as cholinergic ligands at nicotinic ACH receptors” (NeuroSearch A/S, priority 1997, dated 2002).)
